The structures appear in SMILES notation.

Test [1] deals with MCF-7 breast cancer cell lines. Kind of test: MTT assay, CGEN-CL1 and/or paclitaxel on MCF-7 cells. In kind it is cell-based. On the procedure: (§1) 20 μl of MTT (3-(4,5-Dimethyl-2-thiazolyl)-2,5-diphenyl-2H-tetrazolium bromide) solution (Sigma Cat#M5655, lot#085k5322, 1 gr was dissolved in 200 ml H2O and filtered, giving a final concentration of 5 mg/ml) was added to each well and incubated for 4 hours at 37° C. after which the medium was vacuumed and 100 μl of DMSO was added to each well. Absorbance was measured in an ELISA reader at 492 nm.
(§2) A549, PC3 and MCF7 cells were seeded at 6000, 8000 and 10,000 cells per well respectively in 150 μl of media (DMEM medium+5% FBS) in 96 well plates.
(§3) Paclitaxel (Sigma T7402, Lot. 036k1217, Mw 853.9, 5 mg dissolved in 585 μl DMSO to a stock concentration of 10 mM, stored at −20° C.) and/or CGEN-CL1 (1 mg dissolved in 250 μl of sodium bi-carbonate to a stock concentration of 4 mg/ml) were added to the wells in 25 μl of medium (final volume of 200 μl) as detailed in Table 3. The relative growth was normalized to controls where neither paclitaxel nor CGEN-CL1 was added to wells.
(§4) An MTT assay was performed as described above in Example 2.
A general note: Tetrazolium assays rely on reduction of a dye to a coloured formazan, in cell work by metabolically active cells.

The subject of test [2] is lung carcinoma cell line A549. Kind of test: MTT assay, CGEN-CL1 and/or paclitaxel on A549 cells. In kind it is cell-based, human. As to conditions: single agent. The protocol: as §1, §2, §3, §4

On to `CC(=O)O[C@H]1C(=O)[C@@]2(C)[C@H]([C@H](OC(=O)c3ccccc3)[C@]3(O)C[C@H](OC(=O)[C@H](O)[C@@H](NC(=O)c4ccccc4)c4ccccc4)C(C)=C1C3(C)C)[C@]1(OC(C)=O)CO[C@@H]1C[C@@H]2O` [Paclitaxel, reference compound], for which the “Relative Growth” value in test [1] (Paclitaxel 2.25 nM alone) turned out to be 0.88; in test [1] (Paclitaxel 30.00 nM alone), 0.49. In test [2], the “maximal effect (inhibition) alone” value is given as 50%.
